Test results as given in patent US20050282743A1, “Molecular interactions in cells” (Arbor Vita Corporation, priority 2001, published 2005).
Ends that are not written are not given here. Peptide text beside a SMILES is read from it. * marks the point of attachment. Biotin = O=C1N[C@H]2[C@H](CS[C@H]2CCCCC(=O)*)N1

Experiments:
Assay in all cases: G' assay (10 uM PL peptide), results of TABLE 7 and TABLE 12
Format in all cases: binding
[1] = target: T1, PDZ protein (GST-PDZ fusion) (Homo sapiens, UniProt O14745)
T1 construct: made in house; host or cells: E. coli (DH5alpha, BL21 or JM109)
T1 sequence (O14745 1-358): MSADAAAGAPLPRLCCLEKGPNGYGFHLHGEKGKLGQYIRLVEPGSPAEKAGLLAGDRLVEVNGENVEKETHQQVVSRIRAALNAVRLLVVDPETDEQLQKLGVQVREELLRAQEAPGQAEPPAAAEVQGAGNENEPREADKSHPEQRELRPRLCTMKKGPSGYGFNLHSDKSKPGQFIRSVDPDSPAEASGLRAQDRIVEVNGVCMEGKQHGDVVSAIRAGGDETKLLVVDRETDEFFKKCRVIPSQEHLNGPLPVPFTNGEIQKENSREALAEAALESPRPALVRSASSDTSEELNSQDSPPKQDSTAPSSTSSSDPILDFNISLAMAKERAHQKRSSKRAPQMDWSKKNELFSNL
How it was run: (§1)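 Binding classes derive from A450 nm of bound biotin-tagged PL peptide. A score of 5 needs A450 above 4 in more than two repeats.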

[2] = target: T2, PDZ protein (GST-PDZ fusion) (Homo sapiens, UniProt Q5T2W1)
T2 construct: made in house; host or cells: E. coli (DH5alpha, BL21 or JM109)
T2 sequence (Q5T2W1 1-519): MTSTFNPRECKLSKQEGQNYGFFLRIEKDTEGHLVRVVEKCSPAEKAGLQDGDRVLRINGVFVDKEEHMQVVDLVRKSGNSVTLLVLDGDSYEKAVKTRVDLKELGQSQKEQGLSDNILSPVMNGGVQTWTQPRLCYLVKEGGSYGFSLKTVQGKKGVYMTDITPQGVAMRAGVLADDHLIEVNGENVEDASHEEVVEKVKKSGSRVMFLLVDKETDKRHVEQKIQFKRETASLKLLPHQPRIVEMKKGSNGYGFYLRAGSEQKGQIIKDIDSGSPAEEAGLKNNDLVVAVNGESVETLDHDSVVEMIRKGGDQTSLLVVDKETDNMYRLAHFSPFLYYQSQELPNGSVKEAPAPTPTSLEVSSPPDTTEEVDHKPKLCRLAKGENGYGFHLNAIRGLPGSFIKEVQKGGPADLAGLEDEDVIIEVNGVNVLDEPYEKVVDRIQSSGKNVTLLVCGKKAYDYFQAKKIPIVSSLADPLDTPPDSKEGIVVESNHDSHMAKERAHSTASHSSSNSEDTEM
How it was run: as §1

[3] = target: T3, PDZ protein (GST-PDZ fusion) (Homo sapiens, UniProt Q9Y3R0)
T3 construct: made in house; host or cells: E. coli (DH5alpha, BL21 or JM109)
T3 sequence (Q9Y3R0 1-1128): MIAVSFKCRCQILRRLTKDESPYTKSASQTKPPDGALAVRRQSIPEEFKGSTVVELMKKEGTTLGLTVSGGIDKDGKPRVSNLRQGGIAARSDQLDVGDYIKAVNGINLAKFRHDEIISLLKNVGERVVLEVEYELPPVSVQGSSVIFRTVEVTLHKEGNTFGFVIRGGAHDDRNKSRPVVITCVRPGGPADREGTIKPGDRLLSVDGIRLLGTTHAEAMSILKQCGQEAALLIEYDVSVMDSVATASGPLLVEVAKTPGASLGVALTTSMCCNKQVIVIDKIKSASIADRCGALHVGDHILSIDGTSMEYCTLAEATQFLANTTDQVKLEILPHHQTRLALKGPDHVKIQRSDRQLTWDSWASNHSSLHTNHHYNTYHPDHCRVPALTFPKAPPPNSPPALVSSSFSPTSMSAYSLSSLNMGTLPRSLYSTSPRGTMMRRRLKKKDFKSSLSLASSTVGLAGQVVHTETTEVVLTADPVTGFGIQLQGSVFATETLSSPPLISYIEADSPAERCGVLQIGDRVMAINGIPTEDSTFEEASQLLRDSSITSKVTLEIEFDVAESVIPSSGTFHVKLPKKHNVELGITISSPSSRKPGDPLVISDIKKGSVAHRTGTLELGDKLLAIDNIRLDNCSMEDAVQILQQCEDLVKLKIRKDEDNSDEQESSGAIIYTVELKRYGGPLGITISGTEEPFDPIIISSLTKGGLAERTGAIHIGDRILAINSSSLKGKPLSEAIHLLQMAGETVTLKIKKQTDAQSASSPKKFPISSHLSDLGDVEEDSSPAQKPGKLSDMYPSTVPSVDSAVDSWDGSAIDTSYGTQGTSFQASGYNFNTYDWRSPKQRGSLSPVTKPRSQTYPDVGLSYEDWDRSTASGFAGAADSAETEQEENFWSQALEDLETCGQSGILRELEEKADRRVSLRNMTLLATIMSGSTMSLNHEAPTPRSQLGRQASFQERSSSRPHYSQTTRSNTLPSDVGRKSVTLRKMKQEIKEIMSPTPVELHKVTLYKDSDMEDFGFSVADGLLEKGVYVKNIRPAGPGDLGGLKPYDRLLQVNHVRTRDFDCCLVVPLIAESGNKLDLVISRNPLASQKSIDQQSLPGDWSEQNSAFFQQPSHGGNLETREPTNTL
How it was run: as §1

Molecule	Classification ([1]; PDZ EBP50, PDZ Domain 1)	Classification ([1]; PDZ EBP50, PDZ Domain 2)	Classification ([2]; PDZ PDZK1, PDZ Domain 2, 3, 4)	further results
CC(C)C[C@H](NC(=O)CNC(=O)[C@@H](NC(=O)[C@H](CO)NC(=O)[C@H](CC(N)=O)NC(=O)[C@H](Cc1ccccc1)NC(=O)CNC(=O)[C@H](C)NC(=O)[C@H](C)NC(=O)[C@H](Cc1ccccc1)NC(=O)[C@@H](NC(=O)CCCC[C@@H]1SC[C@@H]2NC(=O)N[C@@H]21)[C@@H](C)O)[C@@H](C)O)C(=O)N1CCC[C@H]1C(=O)N[C@@H](Cc1c[nH]cn1)C(=O)N[C@@H](CO)C(=O)N[C@H](C(=O)N[C@H](C(=O)N[C@@H](CCCNC(=N)N)C(=O)N[C@H](C(=O)O)C(C)C)[C@@H](C)O)[C@@H](C)O [Neuroligin] (Biotin-TFAAGFNSTGLPHSTTRV-OH; C-terminus assumed)	2 (A450 nm 1-2)	1 (A450 nm 0-1)	–	–
CC(C)C[C@H](NC(=O)[C@H](C)NC(=O)[C@@H](NC(=O)[C@H](CCC(=O)O)NC(=O)[C@H](CCCNC(=N)N)NC(=O)[C@H](CCCNC(=N)N)NC(=O)CNC(=O)[C@H](CCC(N)=O)NC(=O)[C@H](CC(C)C)NC(=O)[C@H](CCCNC(=N)N)NC(=O)CNC(=O)CNC(=O)[C@H](CCCNC(=N)N)NC(=O)[C@H](C)NC(=O)[C@H](CO)NC(=O)[C@H](CCCNC(=N)N)NC(=O)CNC(=O)CNC(=O)[C@H](C)NC(=O)[C@H](C)NC(=O)CCCC[C@@H]1SC[C@@H]2NC(=O)N[C@@H]21)[C@@H](C)O)C(=O)O [HPV E6 33 (modified)] (Biotin-AAGGRSARGGRLQGRRETAL-OH; C-terminus assumed)	2 (A450 nm 1-2)	2 (A450 nm 1-2)	1 (A450 nm 0-1)	–
ELLQFCRTPNPALKNGQYWV (Biotin-ELLQFCRTPNPALKNGQYWV)	–	–	–	Classification ([3]; PDZ GRIP1, PDZ Domain 5): 1 (A450 nm 0-1); Classification ([3]; PDZ GRIP1, PDZ Domain 7): 5 (A450 nm of 4 more than 2× repeated)
CC[C@H](C)[C@H](NC(=O)[C@H](CO)NC(=O)[C@H](CCC(=O)O)NC(=O)[C@H](Cc1ccc(O)cc1)NC(=O)[C@H](CC(=O)O)NC(=O)[C@H](CC(N)=O)NC(=O)[C@H](CCC(=O)O)NC(=O)[C@H](CCCCN)NC(=O)CCCC[C@@H]1SC[C@@H]2NC(=O)N[C@@H]21)C(=O)N[C@@H](CO)C(=O)N[C@@H](CC(=O)O)C(=O)N[C@@H](CC(C)C)C(=O)N[C@@H](CCC(N)=O)C(=O)N[C@@H](CCC(N)=O)C(=O)NCC(=O)N[C@@H](CCCNC(=N)N)C(=O)N[C@@H](CC(=O)O)C(=O)N[C@H](C(=O)N[C@H](C(=O)N[C@@H](CCCNC(=N)N)C(=O)N[C@@H](CC(C)C)C(=O)O)[C@@H](C)O)[C@@H](C)CC [PAG] (Biotin-KENDYESISDLQQGRDITRL-OH; C-terminus assumed)	–	–	1 (A450 nm 0-1)	–
CC(C)C[C@H](NC(=O)[C@H](CCCNC(=N)N)NC(=O)CNC(=O)CNC(=O)[C@H](CCCNC(=N)N)NC(=O)[C@H](C)NC(=O)[C@@H]1CCCN1C(=O)[C@H](CCCNC(=N)N)NC(=O)CNC(=O)CNC(=O)[C@@H](NC(=O)[C@H](C)NC(=O)CCCC[C@@H]1SC[C@@H]2NC(=O)N[C@@H]21)C(C)C)C(=O)N[C@@H](CCC(N)=O)C(=O)NCC(=O)N[C@@H](CCCNC(=N)N)C(=O)N[C@@H](CCCNC(=N)N)C(=O)N[C@@H](CCC(N)=O)C(=O)N[C@H](C(=O)N[C@@H](CCC(N)=O)C(=O)N[C@H](C(=O)O)C(C)C)[C@@H](C)O [HPV E6 58 (modified)] (Biotin-AVGGRPARGGRLQGRRQTQV-OH; C-terminus assumed)	–	–	1 (A450 nm 0-1)	–
CC[C@H](C)[C@H](NC(=O)[C@H](Cc1ccc(O)cc1)NC(=O)[C@@H](NC(=O)[C@@H]1CCCN1C(=O)[C@H](CCC(N)=O)NC(=O)[C@H](CCC(=O)O)NC(=O)[C@H](CCC(N)=O)NC(=O)[C@H](C)NC(=O)[C@@H](NC(=O)[C@H](CC(C)C)NC(=O)[C@H](CC(C)C)NC(=O)[C@H](CCCNC(=N)N)NC(=O)[C@H](Cc1ccc(O)cc1)NC(=O)[C@H](CCSC)NC(=O)[C@H](C)NC(=O)[C@H](C)NC(=O)[C@@H]1CCCN1C(=O)[C@H](CCSC)NC(=O)[C@@H](NC(=O)[C@H](CCCCN)NC(=O)CCCC[C@@H]1SC[C@@H]2NC(=O)N[C@@H]21)[C@@H](C)O)[C@@H](C)O)C(C)C)C(=O)O [MINT-1] (Biotin-KTMPAAMYRLLTAQEQPVYI-OH; C-terminus assumed)	–	–	–	Classification ([2]; PDZ PDZK-1, PDZ Domain 4): 1 (A450 nm 0-1)
KTMPAAMFRLLTGQETPLYI (Biotin-KTMPAAMFRLLTGQETPLYI) [MINT-2]	–	–	–	Classification ([2]; PDZ PDZK-1, PDZ Domain 4): 1 (A450 nm 0-1)
CC[C@H](C)[C@H](NC(=O)[C@H](CC(=O)O)NC(=O)[C@H](CCC(=O)O)NC(=O)[C@H](CCCNC(=N)N)NC(=O)[C@@H](NC(=O)CCCC[C@@H]1SC[C@@H]2NC(=O)N[C@@H]21)[C@@H](C)O)C(=O)N[C@@H](Cc1ccc(O)cc1)C(=O)N[C@H](C(=O)N[C@@H](CC(N)=O)C(=O)N[C@@H](Cc1ccc(O)cc1)C(=O)N1CCC[C@H]1C(=O)N[C@H](C(=O)N[C@@H](Cc1ccccc1)C(=O)N[C@@H](CO)C(=O)N[C@@H](CCCNC(=N)N)C(=O)N[C@@H](CCCNC(=N)N)C(=O)N1CCC[C@H]1C(=O)N[C@@H](CCCCN)C(=O)N[C@H](C(=O)N[C@@H](CCCNC(=N)N)C(=O)N[C@H](C(=O)O)C(C)C)[C@@H](C)O)[C@@H](C)O)C(C)C [DNAM-1] (Biotin-TREDIYVNYPTFSRRPKTRV-OH; C-terminus assumed)	1 (A450 nm 0-1)	1 (A450 nm 0-1)	–	–
ARHRVTSYTSSSVNVSSNL (Biotin-ARHRVTSYTSSSVNVSSNL) [IL-8RB]	–	–	1 (A450 nm 0-1)	–
PPATPSPRLALPAHHNATRL (Biotin-PPATPSPRLALPAHHNATRL) [Na+/Pi cotransporter 2]	5 (A450 nm of 4 more than 2× repeated)	2 (A450 nm 1-2)	1 (A450 nm 0-1)	–
CC[C@H](C)[C@H](NC(=O)CNC(=O)[C@H](CO)NC(=O)[C@H](Cc1ccccc1)NC(=O)[C@@H](NC(=O)[C@H](CS)NC(=O)CNC(=O)CNC(=O)[C@H](C)NC(=O)[C@@H]1CCCN1C(=O)[C@@H](NC(=O)[C@@H]1CCCN1C(=O)CCCC[C@@H]1SC[C@@H]2NC(=O)N[C@@H]21)[C@@H](C)CC)[C@@H](C)O)C(=O)N[C@@H](Cc1ccccc1)C(=O)N1CCC[C@H]1C(=O)N[C@H](C(=O)N[C@@H](CC(C)C)C(=O)N[C@H](C(=O)N[C@@H](CO)C(=O)N1CCC[C@H]1C(=O)N[C@@H](CC(C)C)C(=O)O)[C@@H](C)O)[C@@H](C)O [KIA 1481] (Biotin-PIPAGGCTFSGIFPTLTSPL-OH; C-terminus assumed)	2 (A450 nm 1-2)	2 (A450 nm 1-2)	2 (A450 nm 1-2)	–
LASKSAEEGKQIPDSLSTDL (Biotin-LASKSAEEGKQIPDSLSTDL) [Dock2]	1 (A450 nm 0-1)	2 (A450 nm 1-2)	–	–
